Measurements from patent US8207203B2, “Pyridylisoxazole derivatives” (Aska Pharmaceutical Co., Ltd., priority 2006, dated 2012).

Assays:
[1] = Measurement of the compounds' metabolic rate (human liver S9, LC/MS/MS); assay type: in vitro ADME; conditions: human liver S9 0.5 mg protein/mL, compound 1 μmol/L, NADPH generating system, pH7.4, 37° C.
Procedure: (2) Measurement of the Compounds' Metabolic Rate:
Each test compound was added to potassium phosphate buffer (50 mmol/L, pH7.4) containing NADPH generating system (comprising 3.3 mmol/L MgCl2, 3.3 mmol/L glucose 6-phosphate, 1.3 mmol/L β-NADP^+ and 0.4 unit/mL glucose 6-phosphate dehydrogenase) (in which occasion the final concentration was rendered 1 μmol/L) and incubated at 37° C. for 2 minutes. After the incubation, a suspension of human liver S9 (the supernatant fraction obtained by centrifuging comminuted human liver cell fluid at 9000×g) in potassium phosphate buffer was added to the system, to the final concentration of 0.5 mg protein/mL. This reaction mixture was incubated at 37° C. for 5 minutes, and to which 4 volume times the reaction mixture of acetonitrile was added, mixed, cooled with ice and centrifuged (2000×g, 10 minutes). A part of the supernatant was taken and analyzed by LC/MS/MS, to determine the remaining rate of unchanged substance in the reaction solution. The results are shown in the following Table A, concurrently with the measured results of TNF-α production-inhibiting action in (1) above.

TNF-α production = assay: Measurement of TNF-α production-inhibiting action (LPS-stimulated THP-1 cells, ELISA); assay type: cell-based; conditions: Homo sapiens; test substance 100 nM; THP-1 cells with LPS, 2 hours' culture; TNF-α in supernatant by ELISA; read-out: TNF-α generation-inhibiting action (inhibition: rate: %, 100 nM)
Procedure: (1) Measurement of TNF-α Production-Inhibiting Action
THP-1, human-derived culture cells (purchased from Dainippon Pharmaceutical Co.), was suspended (1×10^5 cells/mL) in RPMI 1640 medium (10% fetal bovine serum, containing 100 units/mL of penicillin). The THP-1 cell suspension 1.6 mL was inoculated in a 24-well culture plate, to which further a solution of test substance as dissolved in RPMI 1640 medium to make the final concentration of the test substance 100 nM and 0.2 mL of LPS (E. coli 055: B5-derived, dissolved in RPMI 1640 medium, Difco) of 10 μg/mL in concentration were added, followed by 2 hours' culture under the conditions of 37° C. and 5% CO2. The supernatant which was obtained upon centrifuge (500×g, 5 minutes) was measured with ELISA (Amersham Biosciences, TNF-α Human, ELISA Biotrak System) to quantize TNF-α. The TNF-α production inhibition rate (%) at 100 nM of each test substance was calculated according to the following formula, […]

| percent of unchanged compound remaining after 5 min [1] | Compound | inhibition at 0.1 µM (TNF-α production) |
| --- | --- | --- |
| 17.6% | Cc1cccc(-c2noc(NC(=O)CCc3ccccc3)c2-c2ccncc2)c1 [Example 103, 3-(3-Methylphenyl)-5-(3-phenylpropionylamino)-4-(4-pyridyl)-isoxazole] | 65.5% |
| 23.3% | Cc1cccc(-c2noc(NC(=O)CCc3ccccc3C)c2-c2ccncc2)c1 [Example 106, 3-(3-Methylphenyl)-5-[(2-methylphenyl)propionylamino]-4-(4-pyridyl)isoxazole] | 52.9% |
| 50.5% | Cc1ccc(F)c(-c2noc(NC(=O)CCc3cccc(Cl)c3)c2-c2ccncc2)c1 [Example 117, 5-[(3-Chlorophenyl)propionylamino]-3-(2-fluoro-5-methylphenyl)-4-(4-pyridyl)isoxazole] | 58.1% |
| 58.0% | Cc1cc(-c2noc(NC(=O)Cc3ccccc3)c2-c2ccncc2)ccc1F [Example 123, 3-(4-Fluoro-3-methylphenyl)-5-(phenylacetylamino)-4-(4-pyridyl)-isoxazole] | 78.1% |
| 59.7% | Cc1cc(-c2noc(NC(=O)Cc3ccccc3Cl)c2-c2ccncc2)ccc1F [Example 124, 5-[(2-Chlorophenyl)acetylamino]-3-(4-fluoro-3-methylphenyl)-4-(4-pyridyl)isoxazole] | 85.2% |
| 20.1% | Cc1cc(-c2noc(NC(=O)CCc3ccccc3)c2-c2ccncc2)ccc1F [Example 125, 3-(4-Fluoro-3-methylphenyl)-5-(3-phenylpropionylamino)-4-(4-pyridyl)isoxazole] | 66% |
